ChEMBL document CHEMBL4396942, “19-Hydroxyeicosatetraenoic acid analogs: Antagonism of 20-hydroxyeicosatetraenoic acid-induced vascular sensitization and hypertension” (Bioorg Med Chem Lett, 2019)
Activity calls are given as the source filed them. The rule behind the calls is not given here.

What was measured:
[1] = Solubility of compound in water; format: physicochemical
[2] = Vasodilating activity in rat renal preglomerular microvessels assessed as effect on 20-HETE induced sensitization toward phenylephrine at 1 uM relative to 20-HETE; format: functional
Mus musculus = test: Reversal of androgen-driven 20-HETE-induced hypertension in Cyp4a14(-/-) mouse assessed as reduction in systolic blood pressure at 10 mg/kg, ip daily and measured for 10 days; format: functional, organism-based
Rattus norvegicus [3] = species: Rattus norvegicus; test: Vasodilating activity in rat gracilis muscle arteriole assessed as inhibition of 20-HETE induced change in internal diameter; format: functional
Rattus norvegicus [4] = species: Rattus norvegicus; test: Vasodilating activity in rat gracilis muscle arteriole assessed as change in internal diameter; format: functional

Row | Compound | fold change (FC) [2] | further results
1 | C[C@H](O)CCC/C=C\CCCCCCC/C=C\CCCC(=O)NCC(=O)[O-].[Na+] |  | solubility [1]: 500 µg/mL
2 | CC(O)CCCC/C=C\CCCCCCC/C=C\CCCC(=O)NCC(=O)[O-].[Na+] (centres undefined) | 0.58 | 
3 | O=C([O-])CNC(=O)CCC/C=C\CCCCCCC/C=C\CCCCO.[Na+] | -0.74 | 
4 | C[C@H](O)CCC/C=C\CCCCCCC/C=C\CCCC(=O)N[C@@H](CC(=O)[O-])C(=O)[O-].[Na+].[Na+] | -0.59 | 
5 | [N-]=[N+]=N[C@H](CO)CCC/C=C\CCCCCCC/C=C\CCCC(=O)[O-].[Na+] | 0.16 | 
6 | CC(O)CCCCCCCCCCCC/C=C\CCCC(=O)[O-].[Na+] (centres undefined) | -0.66 | 
7 | C[C@H](O)CCC/C=C\CCCCCCC/C=C\CCCC(=O)[O-].[Na+] | -0.68 | solubility [1]: 250 µg/mL
8 | C[C@@H](O)CCC/C=C\CCCCCCC/C=C\CCCC(=O)N[C@@H](CC(=O)O)C(=O)O |  | Activity (Mus musculus): Active; Activity (Rattus norvegicus [3]): Dose-dependent effect; Activity (Rattus norvegicus [4]): inactive
9 | O=C([O-])CCC/C=C\CCCCCCC/C=C\CCCCO.[Na+] | -0.68 | 
10 | [N-]=[N+]=N[C@@H](CO)CCC/C=C\CCCCCCC/C=C\CCCC(=O)[O-].[Na+] | 0.5 | 
11 | CC(O)CCC/C=C\CCCCCCC/C=C\CCCc1nnn[nH]1 (centres undefined) | -0.78 | 
12 | CC(O)CCC/C=C\CCCCCCCCCCCCC(=O)[O-].[Na+] (centres undefined) | -0.79 | 
13 | C[C@@H](O)CCC/C=C\CCCCCCC/C=C\CCCC(=O)NCC(=O)[O-].[Na+] | -4.47 | solubility [1]: 500 µg/mL
14 | C[C@@H](O)CCC/C=C\CCCCCCC/C=C\CCCC(=O)[O-].[Na+] | -0.85 | solubility [1]: 250 µg/mL
